Data on two compounds can be found in patent US20180353445A1, “METHODS AND COMPOSITIONS RELATING TO PROTEASOME INHIBITOR RESISTANCE” (Whitehead Institute for Biomedical Research, priority 2017, published 2018).

For assay [1], the target named is T1, cysteine desulfurase (NFS1-ISD11-Acp)2 (SDA) (Homo sapiens, UniProt Q9Y697).
T1 construct: made in house
Description: Cysteine desulfurase assay (DTT as the reductant). The assay is classed as biochemical. An excerpt: Fe—S clusters are generated from sulfur extracted from cysteine by the iron sulfur-cluster (ISC) core complex (NFS1-ISD11-Acp-ISCU)2 and iron. A reductant (FDX1 or FDX2) is required for Fc-S cluster biosynthesis (Lill and Muhlenhoff, 2006; Py and Barras, 2010) (FIG. 53A). To investigate the effect of elesclomol on mitochondrial Fe—S cluster biosynthesis, we utilized in vitro Fe—S cluster assembly assays. […] As further confirmation, we examined the effect of elesclomol on electron transfer from reduced FDX1 to the ISC core complex upon the addition of cysteine.
Cysteine desulfurase assay—The protein samples used in the nisteine desulfurase assay and Fe—S cluster assembly experiments were prepared in an anaerobic chamber (Coy Laboratory) with samples buffer-exchanged extensively prior to the experiments with anaerobic buffer containing 20 mM HEPES at pH 7.6 and 150 mM NaCl (HN buffer). The reaction volumes in all the experiments were kept to […]. […]
The cysteine desulfurase assay reactions (300 μL in HN buffer) contained 10 μM SDA. […] The quenched reaction was incubated for 15 min at room temperature, and then the absorbance at 670 nm was measured and used to estimate the amount of sulfide by comparison to a standard curve obtained from known concentrations of Na2S.

Another assay has as its system cancer cells. Nature of the assay: Cell viability, elesclomol and elesclomol analogs (cell titer-glo). The assay is classed as cell-based. The conditions noted are these: across a variety of tumor types. The source says: In addition to the intrinsic sensitivity of certain cancer cells to elesclomol, as our drug screen indicated, the sensitivity of cancer cells to elesclomol can be further enhanced by forcing them into a Hi-OXPHOS state.
We examined several elesclomol analogs (FIG. 57B) to determine the structural features that are important for mediating its cytotoxicity. […] Substitution of oxygen for even one of the sulfur groups (compound-5) reduced the activity of elesclomol by 300 fold. The loss of activity was even more pronounced (>>300 fold) when both sulfurs were substituted (compound-6) (FIGS. 51C-51D, FIG. 57C). Various other modifications to the elesclomol scaffold were tolerated, as long as the core sulfur geometry remained intact.
Cell viability—where indicated relative cell number following different drug treatment was conducted by plating cells at 1000 cells/well in 384 well plates. Indicated concentrations of compounds were added 24 hour after plating at least in triplicate for each condition. Viability was measured 72 hours after drug addition using cell titer-glo (Promega) according to manufactures protocol. […]
On the technique in general: Cellular ATP, detected with luciferase, serves as a proxy for viable cell number.

The next assay has as its system T47D cells. Description: Translation and degradation assays (3H-phenylalanine). It counts as cell-based, human. The conditions noted are these: control cells, 20-hour treatment. Here is the method:
FIGS. 4A-4F: Transient induction of PSMD2 shRNA is sufficient to promote resistance to proteasome inhibition. (FIG. 4A) Schematic representation of the experimental design. (FIG. 4B) T471) cells harboring a doxycycline-inducible PSMD2 shRNA were grown in the presence of in/nil doxycycline for 48 hours. Cells were then collected, washed and plated in the absence of doxycycline for 24 hours prior to exposure to increasing concentrations of bortezomib. Relative cell numbers were measured 3 days later. […] The proteasome complex levels and activity of the 20S proteasome were assessed by native gel electrophoresis. Loading controls were analyzed by immunoblot for PSMD2 and tubulin following SDS-PAGE. […] (FIG. 4E) The rate of degradation was analyzed in cells with reduced levels of PSMD2 (green bars) versus control (red bars) in the presence or absence of 10 nM bortezomib (treatment for 20 hours) by monitoring the release of H3-Phe in pre-labeled cells. (FIG. 4F) Rate of total protein synthesis was determined in cells with reduced levels of PSMD2 (green bars) versus control (red bars) in the presence or absence of 10 nM bortezomib (treatment for 20 hours) by measuring the rate of incorporation of 3H-phenylalanine for 1 hour. **p<0.01***p<0.001 […]

T1 sequence (Q9Y697 56-457): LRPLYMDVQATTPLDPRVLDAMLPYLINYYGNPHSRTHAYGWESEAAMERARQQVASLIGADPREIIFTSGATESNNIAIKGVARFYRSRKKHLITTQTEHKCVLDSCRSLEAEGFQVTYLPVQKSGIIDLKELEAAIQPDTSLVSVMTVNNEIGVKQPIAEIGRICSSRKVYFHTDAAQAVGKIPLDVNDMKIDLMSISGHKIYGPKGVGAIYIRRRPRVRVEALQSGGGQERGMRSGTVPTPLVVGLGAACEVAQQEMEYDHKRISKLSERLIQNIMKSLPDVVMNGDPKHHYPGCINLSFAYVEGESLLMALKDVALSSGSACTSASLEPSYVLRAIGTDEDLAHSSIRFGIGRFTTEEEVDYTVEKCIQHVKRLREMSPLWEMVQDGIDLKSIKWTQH
T1 sequence (P0A6A8 2-78, further chain): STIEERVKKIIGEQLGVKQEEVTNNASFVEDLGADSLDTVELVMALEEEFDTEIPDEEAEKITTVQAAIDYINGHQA
T1 sequence (Q9HD34 whole entry, further chain): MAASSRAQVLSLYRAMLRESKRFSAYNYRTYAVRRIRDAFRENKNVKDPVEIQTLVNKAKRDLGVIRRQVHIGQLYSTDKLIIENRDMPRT

Regarding `CN(NC(=O)CC(=O)NN(C)C(=S)c1ccccc1)C(=S)c1ccccc1` [elesclomol], the “effect on cysteine desulfurase activity” value in assay [1] is reported as “no inhibitory effect”. Besides, in the assay with cancer cells, the “inhibition of cancer cell growth” value is reported as “potent inhibitor of cancer cell growth”.
Turning to `CC(C)C[C@H](NC(=O)[C@H](Cc1ccccc1)NC(=O)c1cnccn1)B(O)O` [bortezomib], in the assay on T47D cells, the “rate of protein degradation” value was “sharply decreased” and the “rate of protein synthesis” value is on record as “sharply decreased”.
